Tests used:
Test in all cases: pIC50, kinobeads binding competition
[1] = molecular target: T1, CASK (UniProt O14936); settings: cell material: Lysate mix
T1 sequence (whole entry): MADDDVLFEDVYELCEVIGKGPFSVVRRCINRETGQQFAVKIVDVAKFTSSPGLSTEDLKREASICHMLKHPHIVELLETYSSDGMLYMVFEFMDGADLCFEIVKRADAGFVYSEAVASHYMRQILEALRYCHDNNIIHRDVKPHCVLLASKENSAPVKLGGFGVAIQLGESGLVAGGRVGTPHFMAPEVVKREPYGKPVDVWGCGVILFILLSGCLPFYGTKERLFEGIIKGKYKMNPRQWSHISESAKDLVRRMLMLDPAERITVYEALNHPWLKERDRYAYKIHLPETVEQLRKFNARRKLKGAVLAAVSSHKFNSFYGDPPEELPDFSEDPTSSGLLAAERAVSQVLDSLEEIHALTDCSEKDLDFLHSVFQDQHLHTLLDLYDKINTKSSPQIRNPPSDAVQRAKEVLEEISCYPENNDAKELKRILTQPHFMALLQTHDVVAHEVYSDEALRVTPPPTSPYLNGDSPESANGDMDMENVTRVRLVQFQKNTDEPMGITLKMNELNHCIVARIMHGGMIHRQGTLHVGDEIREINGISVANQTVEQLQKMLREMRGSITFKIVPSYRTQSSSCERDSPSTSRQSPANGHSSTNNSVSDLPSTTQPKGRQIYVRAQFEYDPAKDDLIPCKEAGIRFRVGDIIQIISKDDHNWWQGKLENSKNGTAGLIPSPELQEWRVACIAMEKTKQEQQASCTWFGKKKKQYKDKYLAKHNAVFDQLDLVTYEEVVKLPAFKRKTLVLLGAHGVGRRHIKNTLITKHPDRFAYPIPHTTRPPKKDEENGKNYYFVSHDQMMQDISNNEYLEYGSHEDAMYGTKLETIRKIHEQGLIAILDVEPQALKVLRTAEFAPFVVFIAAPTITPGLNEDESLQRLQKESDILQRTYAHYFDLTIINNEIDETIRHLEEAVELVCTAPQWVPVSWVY
Method in brief: (§1)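 pIC50 was obtained by fitting fold changes against vehicle to logistic dose-response curves with the R drc package, using biological duplicates. Kinobeads-bound proteins were digested and measured by TMT10 LC-MS/MS. Before this, either living Jurkat cells received nine compound concentrations (top 30 μM, 1:4 steps) for 60 min at 37 °C prior to lysis, or Jurkat lysate or a 1:1:1:1 HEK293/K-562/HepG2/placenta lysate mix received nine concentrations (top 30 μM, 1:5 steps) for 60 min at 4 °C.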

[2] = molecular target: Fes (UniProt P07332); settings: cell material: Lysate mix
Chain of Fes (P07332 whole entry): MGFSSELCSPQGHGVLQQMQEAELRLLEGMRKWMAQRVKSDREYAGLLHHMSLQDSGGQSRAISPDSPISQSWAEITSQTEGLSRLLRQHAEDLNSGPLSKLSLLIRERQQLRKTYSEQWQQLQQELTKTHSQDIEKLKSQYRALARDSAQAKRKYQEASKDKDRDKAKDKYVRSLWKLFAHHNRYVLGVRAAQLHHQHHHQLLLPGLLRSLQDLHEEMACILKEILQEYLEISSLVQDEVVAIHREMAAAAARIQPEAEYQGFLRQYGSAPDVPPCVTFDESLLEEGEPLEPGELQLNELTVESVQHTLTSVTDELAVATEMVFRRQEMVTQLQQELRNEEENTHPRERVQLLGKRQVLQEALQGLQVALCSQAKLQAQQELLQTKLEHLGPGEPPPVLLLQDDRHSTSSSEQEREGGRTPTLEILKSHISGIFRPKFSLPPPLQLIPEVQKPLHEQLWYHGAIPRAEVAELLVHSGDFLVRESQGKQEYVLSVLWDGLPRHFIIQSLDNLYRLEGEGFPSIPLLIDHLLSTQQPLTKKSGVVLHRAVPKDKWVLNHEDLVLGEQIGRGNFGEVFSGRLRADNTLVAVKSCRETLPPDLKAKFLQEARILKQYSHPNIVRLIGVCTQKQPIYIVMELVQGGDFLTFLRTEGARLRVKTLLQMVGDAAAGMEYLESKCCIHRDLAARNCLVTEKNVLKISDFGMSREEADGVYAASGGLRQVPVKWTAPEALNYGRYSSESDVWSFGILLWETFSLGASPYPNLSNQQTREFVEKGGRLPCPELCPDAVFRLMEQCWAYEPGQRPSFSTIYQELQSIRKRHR
Method in brief: as §1

[3] = molecular target: UniProt Q14004
Chain of UniProt Q14004 (Q14004 whole entry, looked up): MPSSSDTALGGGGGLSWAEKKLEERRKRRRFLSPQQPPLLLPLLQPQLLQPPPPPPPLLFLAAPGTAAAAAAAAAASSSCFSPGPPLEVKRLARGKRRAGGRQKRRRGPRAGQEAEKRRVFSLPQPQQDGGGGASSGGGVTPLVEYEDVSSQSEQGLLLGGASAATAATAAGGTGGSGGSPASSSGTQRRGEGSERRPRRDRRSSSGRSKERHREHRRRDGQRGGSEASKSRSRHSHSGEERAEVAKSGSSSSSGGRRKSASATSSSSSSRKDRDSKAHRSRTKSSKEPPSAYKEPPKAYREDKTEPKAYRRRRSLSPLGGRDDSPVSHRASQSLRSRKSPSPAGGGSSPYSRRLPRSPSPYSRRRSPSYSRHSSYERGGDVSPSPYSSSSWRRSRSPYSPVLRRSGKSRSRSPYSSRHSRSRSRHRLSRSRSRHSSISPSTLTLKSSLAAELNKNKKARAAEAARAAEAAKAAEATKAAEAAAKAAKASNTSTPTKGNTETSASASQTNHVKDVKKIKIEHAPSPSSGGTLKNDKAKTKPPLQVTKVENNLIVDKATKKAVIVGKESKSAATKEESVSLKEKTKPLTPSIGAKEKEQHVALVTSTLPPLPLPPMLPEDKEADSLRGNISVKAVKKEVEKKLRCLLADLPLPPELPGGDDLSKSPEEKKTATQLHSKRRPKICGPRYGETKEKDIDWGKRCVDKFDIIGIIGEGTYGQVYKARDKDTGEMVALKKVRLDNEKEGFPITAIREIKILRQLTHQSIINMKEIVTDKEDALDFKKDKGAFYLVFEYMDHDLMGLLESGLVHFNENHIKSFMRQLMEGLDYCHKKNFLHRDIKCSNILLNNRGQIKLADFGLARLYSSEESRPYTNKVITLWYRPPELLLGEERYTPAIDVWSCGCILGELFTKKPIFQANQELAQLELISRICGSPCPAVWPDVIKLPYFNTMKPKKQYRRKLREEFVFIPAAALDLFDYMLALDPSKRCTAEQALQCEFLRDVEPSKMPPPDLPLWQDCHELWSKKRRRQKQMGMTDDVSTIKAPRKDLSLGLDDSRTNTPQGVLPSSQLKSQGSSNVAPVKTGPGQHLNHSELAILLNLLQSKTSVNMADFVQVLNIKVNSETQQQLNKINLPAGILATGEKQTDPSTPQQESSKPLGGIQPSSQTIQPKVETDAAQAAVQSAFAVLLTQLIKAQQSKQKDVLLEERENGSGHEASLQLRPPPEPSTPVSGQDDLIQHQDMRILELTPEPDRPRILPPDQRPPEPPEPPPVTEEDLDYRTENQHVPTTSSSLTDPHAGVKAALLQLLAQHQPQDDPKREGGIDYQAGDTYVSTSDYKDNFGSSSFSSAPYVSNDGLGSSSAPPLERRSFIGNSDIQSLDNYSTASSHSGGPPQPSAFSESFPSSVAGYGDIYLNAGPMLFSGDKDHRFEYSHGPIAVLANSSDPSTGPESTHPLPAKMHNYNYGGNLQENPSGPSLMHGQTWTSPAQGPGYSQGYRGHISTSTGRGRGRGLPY
Method in brief: as §1

[4] = molecular target: UniProt Q9HCP0
Method in brief: as §1

[5] = molecular target: T2, KSR1 (UniProt Q8IVT5)
T2 sequence (whole entry): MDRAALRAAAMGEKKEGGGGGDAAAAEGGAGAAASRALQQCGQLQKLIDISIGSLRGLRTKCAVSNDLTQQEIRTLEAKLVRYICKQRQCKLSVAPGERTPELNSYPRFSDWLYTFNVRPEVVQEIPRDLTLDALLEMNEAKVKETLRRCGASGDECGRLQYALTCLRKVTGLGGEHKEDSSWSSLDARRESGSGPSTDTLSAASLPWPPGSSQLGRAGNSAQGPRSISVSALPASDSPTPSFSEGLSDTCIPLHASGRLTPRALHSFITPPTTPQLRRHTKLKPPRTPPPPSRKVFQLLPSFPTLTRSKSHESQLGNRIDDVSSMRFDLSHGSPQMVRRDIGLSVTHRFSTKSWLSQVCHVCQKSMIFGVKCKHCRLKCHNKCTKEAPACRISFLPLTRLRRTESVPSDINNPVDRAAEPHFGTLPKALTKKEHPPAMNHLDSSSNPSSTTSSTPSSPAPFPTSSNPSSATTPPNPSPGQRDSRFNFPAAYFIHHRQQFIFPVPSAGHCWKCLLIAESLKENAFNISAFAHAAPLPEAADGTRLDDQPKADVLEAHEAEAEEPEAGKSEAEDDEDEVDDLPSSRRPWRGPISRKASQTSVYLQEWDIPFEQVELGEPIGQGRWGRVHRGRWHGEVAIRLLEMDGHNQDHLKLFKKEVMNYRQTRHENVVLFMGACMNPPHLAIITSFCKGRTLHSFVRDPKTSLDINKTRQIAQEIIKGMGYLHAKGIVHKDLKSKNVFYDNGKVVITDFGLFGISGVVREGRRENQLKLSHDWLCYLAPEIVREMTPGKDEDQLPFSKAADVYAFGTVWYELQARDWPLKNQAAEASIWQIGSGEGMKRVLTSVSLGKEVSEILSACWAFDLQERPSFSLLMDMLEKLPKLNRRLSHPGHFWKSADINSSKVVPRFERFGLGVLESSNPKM
Method in brief: as §1

[6] = molecular target: T3, UniProt P52564
T3 sequence (whole entry): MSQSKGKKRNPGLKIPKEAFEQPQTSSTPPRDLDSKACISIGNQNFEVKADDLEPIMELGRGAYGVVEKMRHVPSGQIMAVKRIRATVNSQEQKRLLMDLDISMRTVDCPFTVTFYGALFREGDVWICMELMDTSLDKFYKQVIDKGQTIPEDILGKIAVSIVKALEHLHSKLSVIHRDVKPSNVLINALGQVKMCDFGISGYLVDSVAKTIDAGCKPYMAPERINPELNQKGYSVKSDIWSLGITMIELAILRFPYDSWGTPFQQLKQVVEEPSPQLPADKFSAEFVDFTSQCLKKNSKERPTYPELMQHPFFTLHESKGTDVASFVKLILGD
Method in brief: as §1

[7] = molecular target: CLK2 (UniProt P49760)
Chain of CLK2 (P49760 whole entry, looked up): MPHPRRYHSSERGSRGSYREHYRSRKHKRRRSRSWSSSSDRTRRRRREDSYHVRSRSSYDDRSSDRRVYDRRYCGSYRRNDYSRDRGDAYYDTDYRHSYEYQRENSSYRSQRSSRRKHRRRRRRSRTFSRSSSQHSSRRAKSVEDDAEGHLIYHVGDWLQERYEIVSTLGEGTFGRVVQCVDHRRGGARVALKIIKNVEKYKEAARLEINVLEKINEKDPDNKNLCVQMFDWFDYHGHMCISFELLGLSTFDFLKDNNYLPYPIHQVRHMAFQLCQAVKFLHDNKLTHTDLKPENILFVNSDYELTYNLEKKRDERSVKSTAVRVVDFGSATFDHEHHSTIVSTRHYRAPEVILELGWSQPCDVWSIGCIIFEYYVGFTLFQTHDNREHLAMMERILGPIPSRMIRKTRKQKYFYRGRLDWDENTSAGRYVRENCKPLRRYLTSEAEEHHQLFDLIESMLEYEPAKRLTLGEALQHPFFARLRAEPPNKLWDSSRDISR
Method in brief: as §1

[8] = molecular target: CDK10 (UniProt Q15131)
Chain of CDK10 (Q15131 whole entry): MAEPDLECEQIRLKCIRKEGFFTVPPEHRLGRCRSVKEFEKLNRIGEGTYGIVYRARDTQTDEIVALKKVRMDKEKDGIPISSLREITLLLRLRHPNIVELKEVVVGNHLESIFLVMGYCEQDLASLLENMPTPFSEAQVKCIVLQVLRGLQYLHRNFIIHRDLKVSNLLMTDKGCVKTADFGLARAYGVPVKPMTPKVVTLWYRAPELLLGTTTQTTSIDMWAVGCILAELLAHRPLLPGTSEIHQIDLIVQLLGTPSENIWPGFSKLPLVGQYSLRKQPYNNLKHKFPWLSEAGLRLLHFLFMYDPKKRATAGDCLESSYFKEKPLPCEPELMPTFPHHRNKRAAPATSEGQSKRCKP
Method in brief: as §1

[9] = molecular target: SRPK1 (UniProt Q96SB4)
Chain of SRPK1 (Q96SB4 whole entry): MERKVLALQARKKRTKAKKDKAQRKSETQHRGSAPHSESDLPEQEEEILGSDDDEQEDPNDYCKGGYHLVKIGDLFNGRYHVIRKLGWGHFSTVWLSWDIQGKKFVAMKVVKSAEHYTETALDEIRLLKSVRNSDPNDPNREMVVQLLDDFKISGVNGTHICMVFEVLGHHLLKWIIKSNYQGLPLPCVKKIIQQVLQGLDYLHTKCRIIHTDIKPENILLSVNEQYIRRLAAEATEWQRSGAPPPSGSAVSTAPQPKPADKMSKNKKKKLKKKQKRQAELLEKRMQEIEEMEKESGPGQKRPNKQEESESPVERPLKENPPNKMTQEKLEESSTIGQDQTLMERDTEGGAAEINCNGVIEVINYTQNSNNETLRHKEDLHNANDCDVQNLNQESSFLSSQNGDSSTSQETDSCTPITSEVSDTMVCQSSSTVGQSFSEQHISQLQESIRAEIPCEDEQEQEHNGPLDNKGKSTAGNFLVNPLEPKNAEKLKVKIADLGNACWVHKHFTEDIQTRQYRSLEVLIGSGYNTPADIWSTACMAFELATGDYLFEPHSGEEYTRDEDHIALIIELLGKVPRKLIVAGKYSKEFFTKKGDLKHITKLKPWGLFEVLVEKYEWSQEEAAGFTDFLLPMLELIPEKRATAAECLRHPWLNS
Method in brief: as §1

[10] = molecular target: CSF1R (UniProt P07333); settings: cell material: Lysate mix
Chain of CSF1R (P07333 whole entry): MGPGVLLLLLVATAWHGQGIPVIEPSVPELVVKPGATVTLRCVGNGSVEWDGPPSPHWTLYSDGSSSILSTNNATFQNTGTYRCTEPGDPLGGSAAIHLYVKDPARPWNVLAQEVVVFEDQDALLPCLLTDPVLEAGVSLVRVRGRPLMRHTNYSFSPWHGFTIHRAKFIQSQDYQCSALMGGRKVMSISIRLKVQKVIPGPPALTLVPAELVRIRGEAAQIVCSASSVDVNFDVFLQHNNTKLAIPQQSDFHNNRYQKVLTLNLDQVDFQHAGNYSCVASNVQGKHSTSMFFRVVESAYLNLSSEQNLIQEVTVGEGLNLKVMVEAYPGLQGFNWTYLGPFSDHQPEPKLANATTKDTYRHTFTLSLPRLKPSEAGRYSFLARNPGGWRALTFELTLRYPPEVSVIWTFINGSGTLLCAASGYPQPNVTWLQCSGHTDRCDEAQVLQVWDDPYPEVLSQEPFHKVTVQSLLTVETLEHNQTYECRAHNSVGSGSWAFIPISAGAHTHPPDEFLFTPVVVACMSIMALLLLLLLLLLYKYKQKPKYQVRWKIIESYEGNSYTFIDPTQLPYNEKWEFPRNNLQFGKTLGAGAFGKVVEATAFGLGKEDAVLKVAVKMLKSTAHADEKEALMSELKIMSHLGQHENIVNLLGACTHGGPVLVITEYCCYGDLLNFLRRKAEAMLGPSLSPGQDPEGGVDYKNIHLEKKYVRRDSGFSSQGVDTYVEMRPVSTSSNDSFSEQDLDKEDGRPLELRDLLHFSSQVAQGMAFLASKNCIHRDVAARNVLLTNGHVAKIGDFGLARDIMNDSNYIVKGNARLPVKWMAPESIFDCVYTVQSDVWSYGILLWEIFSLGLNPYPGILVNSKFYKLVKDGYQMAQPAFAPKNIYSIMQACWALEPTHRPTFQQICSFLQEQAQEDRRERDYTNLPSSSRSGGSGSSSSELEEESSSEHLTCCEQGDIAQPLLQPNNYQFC
Method in brief: as §1

| Compound | pIC50 [1] | pIC50 [2] | pIC50 ([3]; cell material: Lysate mix) | pIC50 ([4]; cell material: Lysate mix) | pIC50 ([5]; cell material: Lysate mix) | pIC50 ([6]; cell material: Lysate mix) | pIC50 ([8]; cell material: Lysate mix) | pIC50 [10] | pIC50 ([7]; cell material: Lysate mix) | pIC50 ([5]; cell material: Jurkat cells) | pIC50 ([5]; cell material: Jurkat lysate) | pIC50 ([9]; cell material: Lysate mix) | pIC50 ([6]; cell material: Jurkat cells) | pIC50 ([6]; cell material: Jurkat lysate) | pIC50 ([3]; cell material: Jurkat cells) | pIC50 ([3]; cell material: Jurkat lysate) | pIC50 ([7]; cell material: Jurkat cells) | pIC50 ([7]; cell material: Jurkat lysate) | pIC50 ([8]; cell material: Jurkat cells) | pIC50 ([8]; cell material: Jurkat lysate) | pIC50 ([4]; cell material: Jurkat cells) | pIC50 ([4]; cell material: Jurkat lysate) | pIC50 ([9]; cell material: Jurkat cells) |
| --- | --- | --- | --- | --- | --- | --- | --- | --- | --- | --- | --- | --- | --- | --- | --- | --- | --- | --- | --- | --- | --- | --- | --- |
| C#CCNC(=O)c1cc(Nc2cc(C3CC3)[nH]n2)nc(N2CCN(Cc3ccc(S(=O)(=O)F)cc3)CC2)n1 |  | 5.24 |  |  |  | 5.21 | 5.82 | < 4.52 |  |  |  |  | 5.61 | < 4.52 | 6.19 | < 4.52 | 6.11 | 5.57 | 6.16 | 6.04 | 5.12 | < 4.52 | < 4.52 |
| O=C(NCCNC(=O)c1cc(Nc2cc(C3CC3)[nH]n2)nc(N2CCN(Cc3ccc(S(=O)(=O)F)cc3)CC2)n1)OC1CC/C=C/CCC1 (stereo not given) | < 4.52 | < 4.52 | < 4.52 | < 4.52 | < 4.52 | < 4.52 | < 4.52 | < 4.52 | < 4.52 | < 4.52 | < 4.52 |  | < 4.52 | < 4.52 | 6.02 | < 4.52 | 5.92 | < 4.52 | 6.06 |  |  | < 4.52 | < 4.52 |
| CCNC(=O)c1cc(Nc2cc(C3CC3)[nH]n2)nc(N2CCN(Cc3ccc(S(=O)(=O)F)cc3)CC2)n1 | < 4.52 |  |  |  |  | 5.2 | 5.29 | < 4.52 | 5.55 |  |  |  |  |  |  |  |  |  |  |  |  |  |  |
| Cc1cc(Nc2cc(C(=O)NCCNC(=O)OC3CC/C=C/CCC3)nc(N3CCN(Cc4ccc(S(=O)(=O)F)cc4)CC3)n2)n[nH]1 (stereo not given) |  | < 4.52 | < 4.52 | < 4.52 | < 4.52 | < 4.52 | < 4.52 | < 4.52 |  |  |  | < 4.52 |  |  |  |  |  |  |  |  |  |  |  |

Now from value to compound, other results behind:

| pIC50 [1] | pIC50 [2] | pIC50 ([3]; cell material: Lysate mix) | pIC50 ([4]; cell material: Lysate mix) | pIC50 ([5]; cell material: Lysate mix) | pIC50 ([6]; cell material: Lysate mix) | pIC50 ([8]; cell material: Lysate mix) | pIC50 [10] | pIC50 ([7]; cell material: Lysate mix) | pIC50 ([5]; cell material: Jurkat cells) | pIC50 ([5]; cell material: Jurkat lysate) | pIC50 ([9]; cell material: Lysate mix) | Compound | pIC50 ([6]; cell material: Jurkat cells) | pIC50 ([6]; cell material: Jurkat lysate) | pIC50 ([3]; cell material: Jurkat cells) | pIC50 ([3]; cell material: Jurkat lysate) | pIC50 ([7]; cell material: Jurkat cells) | pIC50 ([7]; cell material: Jurkat lysate) | pIC50 ([8]; cell material: Jurkat cells) | pIC50 ([8]; cell material: Jurkat lysate) | pIC50 ([4]; cell material: Jurkat cells) | pIC50 ([4]; cell material: Jurkat lysate) | pIC50 ([9]; cell material: Jurkat cells) |
| --- | --- | --- | --- | --- | --- | --- | --- | --- | --- | --- | --- | --- | --- | --- | --- | --- | --- | --- | --- | --- | --- | --- | --- |
| < 4.52 | < 4.52 | < 4.52 | < 4.52 | < 4.52 |  |  |  |  |  |  |  | C#CCNC(=O)c1cc(Nc2cc(C)[nH]n2)nc(N2CCN(Cc3ccc(S(=O)(=O)F)cc3)CC2)n1 |  |  |  |  |  |  |  |  |  |  |  |
| < 4.52 | < 4.52 | < 4.52 | < 4.52 | < 4.52 | 4.62 |  | < 4.52 |  |  |  |  | CCNC(=O)c1cc(Nc2cc(C)[nH]n2)nc(N2CCN(Cc3ccc(S(=O)(=O)F)cc3)CC2)n1 |  |  |  |  |  |  |  |  |  |  |  |
